Assay: Stability of tryptophan in fermentation broth with calcium added at molar ratio 0.4
Type: physicochemical
Conditions: calcium added at molar ratio of 0.4; increase in pH
Protocol: , respectively, in the same manner as in Examples 1-1 to 1-3 except that a tryptophan-containing fermentation broth having the composition disclosed in Table 2 was used, and the pH was 8.8 and 9.0, respectively. The sample of Comparative Example 2 was prepared by concentrating the tryptophan-containing fermentation broth without adding calcium hydroxide to the tryptophan-containing fermentation broth. […] The fermentation broth to which the slurry was added was concentrated to a degree of concentration of 30% (w/w) in Example 1-4 and a degree of concentration of 35% (w/w) in Example 1-5. It was confirmed that the fermentation broth gelled and lost fluidity when concentrated to a higher degree of concentration. At this time, in the case of the fermentation broth to which a slurry was not added, only a degree of concentration of about 25.5% (w/w) was achieved.

N[C@@H](Cc1c[nH]c2ccccc12)C(=O)O [tryptophan]
decomposition of tryptophan: decomposed into tryptamine, indole-acetate, and anthranilic acid

Source: patent US20230240332A1, “METHOD FOR PREPARING AMINO ACID GRANULE FROM FERMENTATION BROTH” (CJ CHEILJEDANG CORPORATION, priority 2020, published 2023)
